Assay results: patent US6559182B1 (Purcell Jojoba International, LLC, priority 2001, dated 2003)

Test system: Herpes simplex (HSV1 facial herpes or HSV2 genital herpes)
Assay: Survey of Herpes simplex patients who treated themselves with jojoba oil esters
Type: in vivo, human
Conditions: jojoba oil esters compared with the previously used medication
Source text: The study included male and female subjects with a history of multiple Herpes simplex infections that were either HSV1 facial herpes or HSV2 genital herpes. There was non intentional discrimination as to age, sex, and educational or ethnic background.
In this study 57 subjects compared jojoba oil ester treatment with previously used remedies, including no treatment at all. Each subject was given directions as to how to apply the jojoba oil esters. Subjects were advised to begin treatment at the very earliest warning symptoms of burning, itching or tingling that precede a new cold sore outbreak. They were directed to apply one drop of the solution to the herpes area with their finger, then reapply it again in 15 minutes and at mealtimes and bedtime for three days.
The study utilized a survey sheet that included the average number of outbreaks per year in the past, time and date of this new outbreak and how many hours after the first symptoms before treatment was started. Subjects reported the number of doses applied, and the number of days from the onset until they were free of symptoms. They also rated the effectiveness of this treatment compared to previous remedies they had used.

Compound | % reporting jojoba Ester more Effective [%] | JOE a little More effective (number of patients who had used this Rx) | JOE a little less effective (number of patients who had used this Rx) | JOE avg effective (number of patients who had used this Rx) | JOE much more effective (number of patients who had used this Rx)
Nc1nc2c(ncn2COCCO)c(=O)[nH]1 [Acyclovir/Zovirax, Acyclovir] | 84 | 2 | 1 | 2 | 14
CC(=O)Oc1ccccc1C(=O)O [Aspirin] | 100 | – | – | – | 1
C[S+](C)[O-] [DMSO] | 100 | 1 | – | – | –
CC(=O)OCC(CCn1cnc2cnc(N)nc21)COC(C)=O [Famavir] | 100 | – | – | – | 1
OO [Hydrogen peroxide] | 100 | 1 | – | – | 1
NCCCC[C@H](N)C(=O)O [Lycine] | 67 | – | – | 2 | 4
CC(C)[C@H](N)C(=O)OCCOCn1cnc2c(=O)[nH]c(N)nc21 [Valtrex] | 100 | 1 | – | – | 1
CC[C@H]1OC(=O)[C@H](C)[C@@H](O[C@H]2C[C@@](C)(OC)[C@@H](O)[C@H](C)O2)[C@H](C)[C@@H](O[C@@H]2O[C@H](C)C[C@H](N(C)C)[C@H]2O)[C@](C)(O)C[C@@H](C)CN(C)[C@H](C)[C@@H](O)[C@]1(C)O [Zithromax] | 100 | – | – | – | 1
